# Assay results as given in patent US12617783B2, “Heterocyclic GLP-1R agonists” (BIOMEA FUSION, INC., priority 2024, dated 2026).
# pEC50: −log10 of the molar value.
# Biological target: T1, human GLP-1R (Homo sapiens, UniProt P43220)
# T1 construct: host or cells: HEK293
# Experiment: GLP-1R cAMP assay (Example B1a, HTRF, 30 min at room temperature)
# Type: cell-based
# Conditions: cAMP accumulation in HEK293 expressing human GLP-1R, no BETP, 30 min room temperature (Method B1a, compounds ID 1-609), Table 1; read-out: EC50
# Procedure, shortened: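 Competitive HTRF read-out of cAMP after 30 min room-temperature stimulation, BETP absent, of human GLP-1R-HEK293 cells (1,000/well) in HEPES buffer with 500 μM IBMX and 0.1% BSA. Activation normalised to GLP-1(7-37) positive control. EC50 from 4-parameter non-linear regression.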
# T1 sequence (P43220 24-463): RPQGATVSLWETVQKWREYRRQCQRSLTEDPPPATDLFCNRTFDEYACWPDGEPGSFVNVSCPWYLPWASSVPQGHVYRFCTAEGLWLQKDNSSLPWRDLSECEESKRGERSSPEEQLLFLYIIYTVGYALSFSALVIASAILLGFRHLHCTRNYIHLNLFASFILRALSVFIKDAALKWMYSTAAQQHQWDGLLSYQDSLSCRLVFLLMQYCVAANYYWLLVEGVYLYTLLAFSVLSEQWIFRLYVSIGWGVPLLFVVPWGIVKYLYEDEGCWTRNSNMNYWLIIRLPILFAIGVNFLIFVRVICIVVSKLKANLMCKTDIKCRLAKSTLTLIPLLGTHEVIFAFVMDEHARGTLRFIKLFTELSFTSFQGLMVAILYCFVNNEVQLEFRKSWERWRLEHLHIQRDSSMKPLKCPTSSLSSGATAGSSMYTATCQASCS
row,SMILES,pEC50
1,"Cc1cc(-n2nc3c(c2-n2ccn(-c4ccc5c(cnn5C)c4F)c2=O)[C@H](C)N(C(=O)c2cc4cc([C@H]5CCOC(C)(C)C5)ccc4n2C(=O)c2noc(=O)[nH]2)CC3)cc(C)c1F [Compound 115, 3-[5-[(4S)-2,2-dimethyltetrahydropyran-4-yl]-2-[(4S)-2-(4-fluoro-3,5-dimethyl-phenyl)-3-[3-(4-fluoro-1-methyl-indazol-5-yl)-2-oxo-imidazol-1-yl]-4-methyl-6,7-dihydro-4H-pyrazolo[4,3-c]pyridine-5-carbonyl]indole-1-carbonyl]-4H-1,2,4-oxadiazol-5-one]",< 5.00
2,"Cc1cc(-n2nc3c(c2-n2ccn(-c4ccc5ccncc5c4F)c2=O)[C@@H]2CCC[C@H](C3)N2S(=O)(=O)c2cc3cc([C@H]4CCOC(C)(C)C4)ccc3n2[C@]2(c3noc(=O)[nH]3)C[C@@H]2C)cc(C)c1F [Compound 605, 3-[(1R,2S)-1-[5-[(4S)-2,2-dimethyltetrahydropyran-4-yl]-2-[[(1S,8R)-4-(4-fluoro-3,5-dimethyl-phenyl)-3-[3-(8-fluoro-7-isoquinolyl)-2-oxo-imidazol-1-yl]-4,5,12-triazatricyclo[6.3.1.02,6]dodeca-2,5-dien-12-yl]sulfonyl]indol-1-yl]-2-methyl-cyclopropyl]-4H-1,2,4-oxadiazol-5-one]",≤ 5.00
3,"Cc1cc(-n2nc3c(c2-n2ccn(-c4ccc5c(cnn5C)c4F)c2=O)[C@@H]2CCC[C@H](C3)N2S(=O)(=O)c2cc3cc(N4CCOC5(CC5)C4)ccc3n2[C@]2(c3noc(=O)[nH]3)C[C@@H]2C)cc(C)c1F [Compound 538, 3-[(1R,2S)-1-[2-[[(1S,8R)-4-(4-fluoro-3,5-dimethyl-phenyl)-3-[3-(4-fluoro-1-methyl-indazol-5-yl)-2-oxo-imidazol-1-yl]-4,5,12-triazatricyclo[6.3.1.02,6]dodeca-2,5-dien-12-yl]sulfonyl]-5-(4-oxa-7-azaspiro[2.5]octan-7-yl)indol-1-yl]-2-methyl-cyclopropyl]-4H-1,2,4-oxadiazol-5-one]",≤ 5.00
4,"Cc1cc(-n2nc3c(c2-n2ccn(-c4ccc5c(cnn5C)c4F)c2=O)[C@@H]2CCC[C@H](C3)N2S(=O)(=O)c2cc3cc([C@@H]4CCOC5(CC5)C4)ccc3n2[C@]2(c3noc(=O)[nH]3)C[C@@H]2C)cc(C)c1F [Compound 603, 3-[(1R,2S)-1-[2-[[(1S,8R)-4-(4-fluoro-3,5-dimethyl-phenyl)-3-[3-(4-fluoro-1-methyl-indazol-5-yl)-2-oxo-imidazol-1-yl]-4,5,12-triazatricyclo[6.3.1.02,6]dodeca-2,5-dien-12-yl]sulfonyl]-5-[(7R)-4-oxaspiro[2.5]octan-7-yl]indol-1-yl]-2-methyl-cyclopropyl]-4H-1,2,4-oxadiazol-5-one]",≤ 5.00
5,"Cc1cc(-n2nc3c(c2-n2ccn(-c4ccc5c(cnn5C)c4F)c2=O)[C@@H]2CCC[C@H](C3)N2S(=O)(=O)c2cc3cc(N4CCOC5(CC5)C4)ccc3n2[C@@]2(c3noc(=O)[nH]3)C[C@@H]2C)cc(C)c1F [Compound 535, 3-[(1S,2S)-1-[2-[[(1S,8R)-4-(4-fluoro-3,5-dimethyl-phenyl)-3-[3-(4-fluoro-1-methyl-indazol-5-yl)-2-oxo-imidazol-1-yl]-4,5,12-triazatricyclo[6.3.1.02,6]dodeca-2,5-dien-12-yl]sulfonyl]-5-(4-oxa-7-azaspiro[2.5]octan-7-yl)indol-1-yl]-2-methyl-cyclopropyl]-4H-1,2,4-oxadiazol-5-one]",5.72
6,"Cc1cc(-n2nc3c(c2-n2ccn(-c4ccc5c(cnn5C)c4F)c2=O)[C@@H]2CC[C@H](C3)N2C(=O)c2cc3cc([C@H]4CCOC(C)(C)C4)ccc3n2[C@@]2(C(=O)NS(=O)(=O)C3CC3)C[C@@H]2C)cc(C)c1F [Compound 204, cis-(1S,2S)-N-cyclopropylsulfonyl-1-[5-[(4S)-2,2-dimethyltetrahydropyran-4-yl]-2-[(1S,8R)-4-(4-fluoro-3,5-dimethyl-phenyl)-3-[3-(4-fluoro-1-methyl-indazol-5-yl)-2-oxo-imidazol-1-yl]-4,5,11-triazatricyclo[6.2.1.02,6]undeca-2,5-diene-11-carbonyl]indol-1-yl]-2-methyl-cyclopropanecarboxamide]",< 5.00

# Next, values leading:
row,pEC50,SMILES
1,< 5.00,"Cc1cc(-n2nc3c(c2-n2ccn(-c4ccc5c(cnn5C)c4F)c2=O)[C@@H]2CC[C@H](C3)N2C(=O)c2cc3nc([C@@H]4CCOC(C)(C)C4)sc3n2[C@@]2(c3noc(=O)[nH]3)C[C@@H]2C)cc(C)c1F [Compound 207, 3-[(1S,2S)-1-[2-[(4R)-2,2-dimethyltetrahydropyran-4-yl]-5-[(1S,8R)-4-(4-fluoro-3,5-dimethyl-phenyl)-3-[3-(4-fluoro-1-methyl-indazol-5-yl)-2-oxo-imidazol-1-yl]-4,5,11-triazatricyclo[6.2.1.02,6]undeca-2,5-diene-11-carbonyl]pyrrolo[3,2-d]thiazol-4-yl]-2-methyl-cyclopropyl]-4H-1,2,4-oxadiazol-5-one]"
2,6.76,"Cc1cc(-n2nc3c(c2-n2ccn(-c4ccc5c(cnn5C)c4F)c2=O)C2COCC(C3)N2C(=O)c2cc3cc([C@H]4CCOC(C)(C)C4)ccc3n2[C@@]2(c3noc(=O)[nH]3)C[C@@H]2C)cc(C)c1F (stereo partly drawn) [Compound 116, 3-((1S,2S)-1-(5-((S)-2,2-dimethyltetrahydro-2H-pyran-4-yl)-2-(3-(3-(4-fluoro-1-methyl-1H-indazol-5-yl)-2-oxo-2,3-dihydro-1H-imidazol-1-yl)-2-(4-fluoro-3,5-dimethylphenyl)-2,4,5,7,8,9-hexahydro-4,8-epiminooxocino [5,4-c]pyrazole-10-carbonyl)-1H-indol-1-yl)-2-methylcyclopropyl)-1,2,4-oxadiazol-5(4H)-one]"
3,≤ 5.00,"Cc1cc(-n2nc3c(c2-n2ccn(-c4ccc5c(cnn5C)c4F)c2=O)[C@H]2CC[C@@H](C3)N2C(=O)c2cc3cc([C@H]4CCOC5(CC5)C4)ccc3n2[C@]2(c3noc(=O)[nH]3)C[C@H]2C)cc(C)c1F [Compound 520, 3-[(1R,2R)-1-[2-[(1R,8S)-4-(4-fluoro-3,5-dimethyl-phenyl)-3-[3-(4-fluoro-1-methyl-indazol-5-yl)-2-oxo-imidazol-1-yl]-4,5,11-triazatricyclo[6.2.1.02,6]undeca-2,5-diene-11-carbonyl]-5-[(7S)-4-oxaspiro[2.5]octan-7-yl]indol-1-yl]-2-methyl-cyclopropyl]-4H-1,2,4-oxadiazol-5-one]"
4,< 5.00,"Cc1cc(-n2nc3c(c2-n2ccn(-c4ccc5c(cnn5C)c4F)c2=O)[C@@H]2CC[C@H](C3)N2C(=O)c2cc3cc(C4CCOC5(C4)CN(C)C5)ccc3n2C2(c3noc(=O)[nH]3)CC2)cc(C)c1F (stereo partly drawn) [Compound 135, 3-[1-[2-[(1S,8R)-4-(4-fluoro-3,5-dimethyl-phenyl)-3-[3-(4-fluoro-1-methyl-indazol-5-yl)-2-oxo-imidazol-1-yl]-4,5,11-triazatricyclo[6.2.1.02,6]undeca-2,5-diene-11-carbonyl]-5-(2-methyl-5-oxa-2-azaspiro[3.5]nonan-8-yl)indol-1-yl]cyclopropyl]-4H-1,2,4-oxadiazol-5-one]"
5,6.34,"Cc1cc(-n2nc3c(c2-n2ccn(-c4cc(F)c5c(cnn5C)c4F)c2=O)[C@@H]2CC[C@H](C3)N2C(=O)c2cc3cc([C@H]4CCOC(C)(C)C4)ccc3n2[C@@]2(c3noc(=O)[nH]3)C[C@@H]2C)cc(C)c1F [Compound 235, 3-[(1S,2S)-1-[2-[(1S,8R)-3-[3-(4,7-difluoro-1-methyl-indazol-5-yl)-2-oxo-imidazol-1-yl]-4-(4-fluoro-3,5-dimethyl-phenyl)-4,5,11-triazatricyclo[6.2.1.02,6]undeca-2,5-diene-11-carbonyl]-5-[(4S)-2,2-dimethyltetrahydropyran-4-yl]indol-1-yl]-2-methyl-cyclopropyl]-4H-1,2,4-oxadiazol-5-one]"
6,5.71,"Cc1cc(-n2nc3c(c2-n2ccn(-c4ccc5c(cnn5C)c4F)c2=O)[C@@H]2CC[C@H](C3)N2S(=O)(=O)c2cc3cc(C4CCOC(C)(C)C4)ccc3n2[C@]2(c3noc(=O)[nH]3)C[C@@H]2C)cc(C)c1F (stereo partly drawn) [Compound 504, 3-[(1R,2S)-1-[5-(2,2-dimethyltetrahydropyran-4-yl)-2-[[(1S,8R)-4-(4-fluoro-3,5-dimethyl-phenyl)-3-[3-(4-fluoro-1-methyl-indazol-5-yl)-2-oxo-imidazol-1-yl]-4,5,11-triazatricyclo[6.2.1.02,6]undeca-2,5-dien-11-yl]sulfonyl]indol-1-yl]-2-methyl-cyclopropyl]-4H-1,2,4-oxadiazol-5-one]"
7,6.21,"Cc1cc(-n2nc3c(c2-n2ccn(-c4ccc5c(cnn5C)c4F)c2=O)[C@@H]2CC[C@H](C3)N2C(=O)c2cc3cc([C@H]4CCOC(C)(C)C4)ccc3n2[C@@]2(C(=O)N(C)C)C[C@@H]2C)cc(C)c1F [Compound 240, cis-(1S,2S)-1-[5-[(4S)-2,2-dimethyltetrahydropyran-4-yl]-2-[(1S,8R)-4-(4-fluoro-3,5-dimethyl-phenyl)-3-[3-(4-fluoro-1-methyl-indazol-5-yl)-2-oxo-imidazol-1-yl]-4,5,11-triazatricyclo[6.2.1.02,6]undeca-2,5-diene-11-carbonyl]indol-1-yl]-N,N,2-trimethyl-cyclopropanecarboxamide]"
8,6.23,"Cc1cc(-n2nc3c(c2-n2ccn(-c4ccc5c(cnn5C)c4F)c2=O)[C@@H]2CC[C@H](C3)N2C(=O)c2cc3cc([C@H]4CCOC(C)(C)C4)ccc3n2C2(c3noc(=O)[nH]3)CC2)cc(C)c1F [Compound 114, 3-(1-(5-((S)-2,2-dimethyltetrahydro-2H-pyran-4-yl)-2-((4S,7R)-3-(3-(4-fluoro-1-methyl-1H-indazol-5-yl)-2-oxo-2,3-dihydro-1H-imidazol-1-yl)-2-(4-fluoro-3,5-dimethylphenyl)-2,4,5,6,7,8-hexahydro-4,7-epiminocyclohepta [c]pyrazole-9-carbonyl)-1H-indol-1-yl)cyclopropyl)-1,2,4-oxadiazol-5 (4H)-one]"
